Measurements taken from patent US12391737B2, “Soluble NPY2 receptor agonists” (Boehringer Ingelheim International GmbH, priority 2020, dated 2025).

Tests used:
[1] = molecular target: T1, Human Neuropeptide Y2 Receptor (Homo sapiens, UniProt P49146); test: Radioligand binding competition assay (RLB); settings: Table 3, 125I-PYY(1-36) competition; read-out: Ki
T1 construct: purchased CHEMICON HTS066M
T1 sequence (P49146 1-381): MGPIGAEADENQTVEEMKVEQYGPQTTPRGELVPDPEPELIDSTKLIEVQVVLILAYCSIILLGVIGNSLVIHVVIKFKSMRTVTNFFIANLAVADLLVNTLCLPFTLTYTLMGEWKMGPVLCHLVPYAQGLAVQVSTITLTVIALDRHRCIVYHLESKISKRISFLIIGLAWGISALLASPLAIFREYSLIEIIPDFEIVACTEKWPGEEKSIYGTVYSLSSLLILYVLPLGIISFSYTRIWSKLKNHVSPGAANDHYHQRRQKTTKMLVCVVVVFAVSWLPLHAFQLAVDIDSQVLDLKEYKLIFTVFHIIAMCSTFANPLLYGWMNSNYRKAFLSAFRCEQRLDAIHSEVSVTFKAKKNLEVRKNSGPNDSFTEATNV
Procedure, shortened: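 Displacement of radioligand is measured after 2 h at room temperature with receptor membranes in Mg2+/Ca2+ HEPES buffer, pH 7.4. Filter-bound radioactivity is counted and IC50 obtained from curve fitting.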

Solubility determination = settings: for Sol6: pH 6; for Sol7: pH 7
Procedure, shortened: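 Solubility is derived from the ratio of reversed-phase peak areas, filtered sample over a control dissolved at 1 mg/ml in 50% acetonitrile. Peptides are agitated for 2 hours at room temperature in 0.1 M sodium diphosphate at pH 6.4 or 7.0, aiming at 10 mg/ml.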

Compound	Ki [1]	Sol6 (Solubility determination)	Sol7 (Solubility determination)
CC[C@H](C)[C@H](NC(=O)[C@H](CCC(=O)O)NC(=O)[C@H](CCC(=O)O)NC(=O)[C@@H]1CCCN1C(=O)[C@@H](NC(=O)[C@H](C)NC(=O)[C@H](CC(=O)O)NC(=O)[C@H](CCC(=O)O)NC(=O)[C@H](CCC(=O)O)NC(=O)[C@@H]1CCCN1C(=O)[C@H](CCCCNC(=O)CCCCCNC(=O)CC[C@H](NC(=O)CCCCCCCCCCCCCCCCC(=O)O)C(=O)O)NC(=O)[C@H](CCC(=O)O)NC(=O)[C@@H]1CCCN1C(=O)[C@H](C)NC(=O)CC(C)C)[C@@H](C)O)C(=O)N[C@@H](CCC(N)=O)C(=O)N[C@@H](CCCNC(=N)N)C(=O)N[C@@H](Cc1ccc(O)cc1)C(=O)N[C@@H](Cc1ccc(O)cc1)C(=O)N[C@H](C(=O)N[C@@H](CO)C(=O)N[C@@H](CC(C)C)C(=O)N[C@@H](CCCNC(=N)N)C(=O)N[C@@H](Cc1c[nH]cn1)C(=O)N[C@@H](Cc1ccc(O)cc1)C(=O)N[C@@H](CCC(N)=O)C(=O)N[C@@H](CC(N)=O)C(=O)N[C@@H](Cc1c[nH]c2ccccc12)C(=O)N[C@@H](CC(C)C)C(=O)N[C@H](C(=O)N[C@@H](CCCNC(=N)N)C(=O)N[C@@H](CCC(N)=O)C(=O)N[C@@H](CCCNC(=N)N)C(=O)N[C@@H](Cc1ccc(O)cc1)C(N)=O)[C@@H](C)O)C(C)C [Compound 113, N{alpha-4}-(3-methylbutanoyl)-N{epsilon-7}-(6-[(4S)-4-carboxy-4-(17-carboxyheptadecanamido)butanamido]hexanoyl)-[4A,7K,9E,13T,17I,18Q,22V,28Q,30W,31L]-hPYY(4-36)]	3.53 nM	>10.0 mg/mL	10.0 mg/mL
CC(C)CC(=O)N[C@@H](C)C(=O)N1CCC[C@H]1C(=O)N[C@@H](CCC(=O)O)C(=O)N[C@@H](CCCCNC(=O)CCCCCNC(=O)CC[C@H](NC(=O)CCCCCCCCCCCCCCCCC(=O)O)C(=O)O)C(=O)N1CCC[C@H]1C(=O)N[C@@H](CCC(=O)O)C(=O)N[C@@H](CCC(=O)O)C(=O)N[C@@H](CC(=O)O)C(=O)N[C@@H](C)C(=O)N[C@H](C(=O)N1CCC[C@H]1C(=O)N[C@@H](CCC(=O)O)C(=O)N[C@@H](CCC(=O)O)C(=O)N[C@@H](CO)C(=O)N[C@@H](CCC(N)=O)C(=O)N[C@@H](CCCNC(=N)N)C(=O)N[C@@H](Cc1ccc(O)cc1)C(=O)N[C@@H](Cc1ccc(O)cc1)C(=O)N[C@H](C(=O)N[C@@H](CO)C(=O)N[C@@H](CC(C)C)C(=O)N[C@@H](CCCNC(=N)N)C(=O)N[C@@H](Cc1c[nH]cn1)C(=O)N[C@@H](Cc1ccc(O)cc1)C(=O)N[C@@H](Cc1ccc(O)cc1)C(=O)N[C@@H](CC(N)=O)C(=O)N[C@@H](Cc1c[nH]c2ccccc12)C(=O)N[C@@H](CC(C)C)C(=O)N[C@H](C(=O)N[C@@H](CCCNC(=N)N)C(=O)N[C@@H](CCC(N)=O)C(=O)N[C@@H](CCCNC(=N)N)C(=O)N[C@@H](Cc1ccc(O)cc1)C(N)=O)[C@@H](C)O)C(C)C)[C@@H](C)O [Compound 119, N{alpha-4}-(3-methylbutanoyl)-N{epsilon-7}-(6-[(4S)-4-carboxy-4-(17-carboxyheptadecanamido)butanamido]hexanoyl)-[4A,7K,9E,13T,17S,18Q,22V,28Y,30W,31L]-hPYY(4-36)]	5.73 nM	9.3 mg/mL	9.1 mg/mL
CC[C@H](C)[C@H](NC(=O)[C@H](CCC(=O)O)NC(=O)[C@H](CCC(=O)O)NC(=O)[C@@H]1CCCN1C(=O)[C@@H](NC(=O)[C@H](C)NC(=O)[C@H](C)NC(=O)[C@H](CCC(=O)O)NC(=O)[C@H](CCC(=O)O)NC(=O)[C@@H]1CCCN1C(=O)[C@H](CCCCNC(=O)CCCCCNC(=O)CC[C@H](NC(=O)CCCCCCCCCCCCCCCCC(=O)O)C(=O)O)NC(=O)[C@H](C)NC(=O)[C@@H]1CCCN1C(=O)[C@H](C)NC(=O)CC(C)C)[C@@H](C)O)C(=O)N[C@@H](CCC(N)=O)C(=O)N[C@@H](CCCNC(=N)N)C(=O)N[C@@H](Cc1ccc(O)cc1)C(=O)N[C@@H](Cc1ccc(O)cc1)C(=O)N[C@H](C(=O)N[C@@H](C)C(=O)N[C@@H](CC(C)C)C(=O)N[C@@H](CCCNC(=N)N)C(=O)N[C@@H](Cc1c[nH]cn1)C(=O)N[C@@H](Cc1ccc(O)cc1)C(=O)N[C@@H](Cc1ccc(O)cc1)C(=O)N[C@@H](CC(N)=O)C(=O)N[C@@H](Cc1c[nH]c2ccccc12)C(=O)N[C@@H](CC(C)C)C(=O)N[C@H](C(=O)N[C@@H](CCCNC(=N)N)C(=O)N[C@@H](CCC(N)=O)C(=O)N[C@@H](CCCNC(=N)N)C(=O)N[C@@H](Cc1ccc(O)cc1)C(N)=O)[C@@H](C)O)C(C)C [Compound 120, N{alpha-4}-(3-methylbutanoyl)-N{epsilon-7}-(6-[(4S)-4-carboxy-4-(17-carboxyheptadecanamido)butanamido]hexanoyl)-[4A,6A,7K,9E,11A,13T,17I,18Q,22V,23A,28Y,30W,31L]-hPYY(4-36)]	1.49 nM	0.0 mg/mL	0.2 mg/mL
CC(C)CC(=O)N[C@@H](C)C(=O)N1CCC[C@H]1C(=O)N[C@@H](CCC(=O)O)C(=O)N[C@@H](CCCCNC(=O)CCCCCNC(=O)CC[C@H](NC(=O)CCCCCCCCCCCCCCCCC(=O)O)C(=O)O)C(=O)N1CCC[C@H]1C(=O)N[C@@H](CCC(=O)O)C(=O)N[C@@H](C)C(=O)N[C@@H](CC(=O)O)C(=O)N[C@@H](C)C(=O)N[C@@H](CO)C(=O)N1CCC[C@H]1C(=O)N[C@@H](CCC(=O)O)C(=O)N[C@@H](CCC(=O)O)C(=O)N[C@@H](CC(C)C)C(=O)N[C@@H](CCC(N)=O)C(=O)N[C@@H](CCCNC(=N)N)C(=O)N[C@@H](Cc1ccc(O)cc1)C(=O)N[C@@H](Cc1ccc(O)cc1)C(=O)N[C@H](C(=O)N[C@@H](CCC(N)=O)C(=O)N[C@@H](CC(C)C)C(=O)N[C@@H](CCCNC(=N)N)C(=O)N[C@@H](Cc1c[nH]cn1)C(=O)N[C@@H](Cc1ccc(O)cc1)C(=O)N[C@@H](Cc1ccc(O)cc1)C(=O)N[C@@H](CC(N)=O)C(=O)N[C@@H](Cc1c[nH]c2ccccc12)C(=O)N[C@@H](CC(C)C)C(=O)N[C@H](C(=O)N[C@@H](CCCNC(=N)N)C(=O)N[C@@H](CCC(N)=O)C(=O)N[C@@H](CCCNC(=N)N)C(=O)N[C@@H](Cc1ccc(O)cc1)C(N)=O)[C@@H](C)O)C(C)C [Compound 121, N{alpha-4}-(3-methylbutanoyl)-N{epsilon-7}-(6-[(4S)-4-carboxy-4-(17-carboxyheptadecanamido)butanamido]hexanoyl)-[4A,7K,9E,10A,18Q,22V,23Q,28Y,30W,31L]-hPYY(4-36)]	1.45 nM	9.1 mg/mL	8.9 mg/mL
CC(C)CC(=O)N[C@@H](C)C(=O)N1CCC[C@H]1C(=O)N[C@@H](CCC(=O)O)C(=O)N[C@@H](CCCCNC(=O)CCCCCNC(=O)CC[C@H](NC(=O)CCCCCCCCCCCCCCCCC(=O)O)C(=O)O)C(=O)N1CCC[C@H]1C(=O)N[C@@H](CCC(=O)O)C(=O)N[C@@H](CCC(=O)O)C(=O)N[C@@H](CC(=O)O)C(=O)N[C@@H](C)C(=O)N[C@@H](C)C(=O)N1CCC[C@H]1C(=O)N[C@@H](CCC(=O)O)C(=O)N[C@@H](CCC(=O)O)C(=O)N[C@@H](CC(C)C)C(=O)N[C@@H](CCC(N)=O)C(=O)N[C@@H](CCCCN)C(=O)N[C@@H](Cc1ccc(O)cc1)C(=O)N[C@@H](Cc1ccc(O)cc1)C(=O)N[C@H](C(=O)N[C@@H](CO)C(=O)N[C@@H](CC(C)C)C(=O)N[C@@H](CCCNC(=N)N)C(=O)N[C@@H](Cc1c[nH]cn1)C(=O)N[C@@H](Cc1ccc(O)cc1)C(=O)N[C@@H](Cc1ccc(O)cc1)C(=O)N[C@@H](CC(N)=O)C(=O)N[C@@H](Cc1c[nH]c2ccccc12)C(=O)N[C@@H](CC(C)C)C(=O)N[C@H](C(=O)N[C@@H](CCCNC(=N)N)C(=O)N[C@@H](CCC(N)=O)C(=O)N[C@@H](CCCNC(=N)N)C(=O)N[C@@H](Cc1ccc(O)cc1)C(N)=O)[C@@H](C)O)C(C)C [Compound 123, N{alpha-4}-(3-methylbutanoyl)-N{epsilon-7}-(6-[(4S)-4-carboxy-4-(17-carboxyheptadecanamido)butanamido]hexanoyl)-[4A,7K,9E,13A,18Q,19K,22V,28Y,30W,31L]-hPYY(4-36)]	3.65 nM	9.1 mg/mL	8.7 mg/mL
